Experimental data: patent publication US11390648B2, “Peptide” (HYSENSBIO, priority 2017, dated 2022)

Test system: Dspp gene
Assay: Dspp mRNA level in human dental pulp cells treated with peptide (real-time PCR)
Type: cell-based
Details: hDPCs, peptide 10 μg/ml, 48 hours; ratio relative to Dspp mRNA level of untreated control; GAPDH internal control; triplicate
Method: Human dental pulp cells were separated from wisdom teeth of adults (aged 18-22) at the School of Dentistry, Seoul National University. In detail, all experiments were performed after the approval of the Institutional Review Board and the informed consent from patients. Wisdom teeth were fractured according to a method of Jung HS et al. (J Mol Histol.(2011)) to expose the dental pulps, and dental pulp tissues were separated with forceps. Each of the separated dental pulp tissues was cut into small pieces with a razor blade, put in a 60-mm dish, covered with a coverslip, and then cultured in a Dulbecco's modified Eagle's medium. It has been known that human dental pulp cells can differentiate into odontoblast, osteoblast, cementoblast, and periodontal ligament cells under various conditions (Tissue Eng Part A. 2014 April; 20 (7-8): 1342-51).
Total RNA was extracted from human dental pulp cells (hDPCs), and human bone marrow mesenchymal stem cells (hBMSCs) with TRIzol reagent. 2 μg of the total RNA, 1 μl of reverse transcriptase, and 0.5 μg of oligo (oligo; dT) were used to synthesize cDNA. The synthesized cDNA was used in a real-time polymerase chain reaction. The real-time polymerase chain reaction was performed on an ABI PRISM 7500 sequence detection system (Applied Biosystems) and an SYBR GREEN PCR Master Mix (Takara, Japan). The real-time polymerase chain reaction was performed under conditions of 94° C., 1 min; 95° C., 15 sec; 60° C., 34 sec for 40 cycles. Results were analyzed by a comparative cycle threshold (CT) method. And the used primers are as follows (Table 17).
The human dental pulp cells (hDPCs) cultured in Example 3 were treated with the peptides (concentration of 10 μg/ml) of each group synthesized in Example 1-1, and cultured for 48 hours. Then, mRNA levels of an odontoblast differentiation marker Dspp gene expressed in the human dental pulp cells were measured, and a ratio of the measured Dspp mRNA level relative to a Dspp mRNA level measured in a control group was calculated, respectively (Tables 18 to 33).
The expression level of the Dspp gene was measured through RT-PCR and real-time PCR analysis described in Example 1-4. In this regard, GAPDH gene was used as an internal control. The experiments were performed in triplicate, and then mean values and standard deviations thereof were taken as measured values. The base sequence of the primers is described in Table 17 above.

## 57 (KYNKRKK; Novel peptide) [compound 57]
  mRNA level of Dspp gene, Mean: 2.415

## 124 (KYKKRRR; Novel peptide) [compound 124]
  mRNA level of Dspp gene, Mean: 2.017

## 9 (KYRQRKK; Novel peptide) [compound 9]
  mRNA level of Dspp gene, Mean: 7.543

## 109 (KYNNKKK; Novel peptide) [compound 109]
  mRNA level of Dspp gene, Mean: 1.756

## 82 (KYKNRKR; Novel peptide) [compound 82]
  mRNA level of Dspp gene, Mean: 1.909

## 97 (KYNQRKK; Novel peptide) [compound 97]
  mRNA level of Dspp gene, Mean: 1.515

## 67 (KYNRRRK; Novel peptide) [compound 67]
  mRNA level of Dspp gene, Mean: 2.452

## 86 (KYKNKRK; Novel peptide) [compound 86]
  mRNA level of Dspp gene, Mean: 1.736

## 55 (KYQKKKR; Novel peptide) [compound 55]
  mRNA level of Dspp gene, Mean: 2

## 18 (KYKQRKR; Novel peptide) [compound 18]
  mRNA level of Dspp gene, Mean: 7.319

## 2 (KYQRRKR; Novel peptide) [compound 2]
  mRNA level of Dspp gene, Mean: 7.171

## 108 (KYNNRRR; Novel peptide) [compound 108]
  mRNA level of Dspp gene, Mean: 1.495

## 125 (KYKKKKK; Novel peptide) [compound 125]
  mRNA level of Dspp gene, Mean: 2.082

## 69 (KYNRKKK; Novel peptide) [compound 69]
  mRNA level of Dspp gene, Mean: 1.899

## 1 (KYQRRKK; Novel peptide) [compound 1]
  mRNA level of Dspp gene, Mean: 7.371

## 111 (KYNNKKR; Novel peptide) [compound 111]
  mRNA level of Dspp gene, Mean: 1.918

## 93 (KYQNKKK; Novel peptide) [compound 93]
  mRNA level of Dspp gene, Mean: 1.892

## 36 (KYRRRRR; Novel peptide) [compound 36]
  mRNA level of Dspp gene, Mean: 3.256

## 83 (KYKNRRK; Novel peptide) [compound 83]
  mRNA level of Dspp gene, Mean: 2.001

## 54 (KYQKKRK; Novel peptide) [compound 54]
  mRNA level of Dspp gene, Mean: 1.638

## 20 (KYKQRRR; Novel peptide) [compound 20]
  mRNA level of Dspp gene, Mean: 7.553

## 35 (KYRRRRK; Novel peptide) [compound 35]
  mRNA level of Dspp gene, Mean: 3.017

## 40 (KYRRKRR; Novel peptide) [compound 40]
  mRNA level of Dspp gene, Mean: 3.109

## 75 (KYRNRRK; Novel peptide) [compound 75]
  mRNA level of Dspp gene, Mean: 2.624

## 5 (KYQRKKK; Novel peptide) [compound 5]
  mRNA level of Dspp gene, Mean: 6.893

## 48 (KYKRKRR; Novel peptide) [compound 48]
  mRNA level of Dspp gene, Mean: 2.602

## 23 (KYKQKKR; Novel peptide) [compound 23]
  mRNA level of Dspp gene, Mean: 9.171

## 27 (KYQQRRK; Novel peptide) [compound 27]
  mRNA level of Dspp gene, Mean: 2.213

## 41 (KYKRRKK; Novel peptide) [compound 41]
  mRNA level of Dspp gene, Mean: 2.937

## 77 (KYRNKKK; Novel peptide) [compound 77]
  mRNA level of Dspp gene, Mean: 1.939

## 56 (KYQKKRR; Novel peptide) [compound 56]
  mRNA level of Dspp gene, Mean: 1.909

## 10 (KYRQRKR; Novel peptide) [compound 10]
  mRNA level of Dspp gene, Mean: 6.996

## 116 (KYRKRRR; Novel peptide) [compound 116]
  mRNA level of Dspp gene, Mean: 1.693

## 104 (KYNQKRR; Novel peptide) [compound 104]
  mRNA level of Dspp gene, Mean: 1.878

## 46 (KYKRKRK; Novel peptide) [compound 46]
  mRNA level of Dspp gene, Mean: 2.733

## 114 (KYRKRKR; Novel peptide) [compound 114]
  mRNA level of Dspp gene, Mean: 1.849

## 120 (KYRNKRR; Novel peptide) [compound 120]
  mRNA level of Dspp gene, Mean: 1.878

## 44 (KYKRRRR; Novel peptide) [compound 44]
  mRNA level of Dspp gene, Mean: 2.517

## 123 (KYKKRRK; Novel peptide) [compound 123]
  mRNA level of Dspp gene, Mean: 1.837

## 12 (KYRQRRR; Novel peptide) [compound 12]
  mRNA level of Dspp gene, Mean: 7.548

## 16 (KYRQKRR; Novel peptide) [compound 16]
  mRNA level of Dspp gene, Mean: 7.739

## 103 (KYNQKKR; Novel peptide) [compound 103]
  mRNA level of Dspp gene, Mean: 1.737

## 43 (KYKRRRK; Novel peptide) [compound 43]
  mRNA level of Dspp gene, Mean: 2.435

## 8 (KYQRKRR; Novel peptide) [compound 8]
  mRNA level of Dspp gene, Mean: 6.531

## 51 (KYQKRRK; Novel peptide) [compound 51]
  mRNA level of Dspp gene, Mean: 1.569

## 6 (KYQRKRK; Novel peptide) [compound 6]
  mRNA level of Dspp gene, Mean: 6.931

## 89 (KYQNRKK; Novel peptide) [compound 89]
  mRNA level of Dspp gene, Mean: 1.635

## 15 (KYRQKKR; Novel peptide) [compound 15]
  mRNA level of Dspp gene, Mean: 6.764

## 71 (KYNRKKR; Novel peptide) [compound 71]
  mRNA level of Dspp gene, Mean: 2.052

## 65 (KYNRRKK; Novel peptide) [compound 65]
  mRNA level of Dspp gene, Mean: 2.201

## 126 (KYKKKRK; Novel peptide) [compound 126]
  mRNA level of Dspp gene, Mean: 1.798

## 34 (KYRRRKR; Novel peptide) [compound 34]
  mRNA level of Dspp gene, Mean: 3.727

## 72 (KYNRKRR; Novel peptide) [compound 72]
  mRNA level of Dspp gene, Mean: 1.739

## 70 (KYNRKRK; Novel peptide) [compound 70]
  mRNA level of Dspp gene, Mean: 1.947

## 42 (KYKRRKR; Novel peptide) [compound 42]
  mRNA level of Dspp gene, Mean: 2.808

## 106 (KYNNRKR; Novel peptide) [compound 106]
  mRNA level of Dspp gene, Mean: 1.673

## 22 (KYKQKRK; Novel peptide) [compound 22]
  mRNA level of Dspp gene, Mean: 7.412

## 63 (KYNKKKR; Novel peptide) [compound 63]
  mRNA level of Dspp gene, Mean: 2.373

## 60 (KYNKRRR; Novel peptide) [compound 60]
  mRNA level of Dspp gene, Mean: 2.089

## 17 (KYKQRKK; Novel peptide) [compound 17]
  mRNA level of Dspp gene, Mean: 7.712

## 73 (KYRNRKK; Novel peptide) [compound 73]
  mRNA level of Dspp gene, Mean: 2.208

## 98 (KYNQRKR; Novel peptide) [compound 98]
  mRNA level of Dspp gene, Mean: 1.479

## 14 (KYRQKRK; Novel peptide) [compound 14]
  mRNA level of Dspp gene, Mean: 6.839

## 68 (KYNRRRR; Novel peptide) [compound 68]
  mRNA level of Dspp gene, Mean: 2.343

## 101 (KYNQKKK; Novel peptide) [compound 101]
  mRNA level of Dspp gene, Mean: 1.674

## 122 (KYKKRKR; Novel peptide) [compound 122]
  mRNA level of Dspp gene, Mean: 1.979

## 79 (KYRNKKR; Novel peptide) [compound 79]
  mRNA level of Dspp gene, Mean: 2.403

## 107 (KYNNRRK; Novel peptide) [compound 107]
  mRNA level of Dspp gene, Mean: 1.935

## 115 (KYRKRRK; Novel peptide) [compound 115]
  mRNA level of Dspp gene, Mean: 1.707

## 28 (KYQQRRR; Novel peptide) [compound 28]
  mRNA level of Dspp gene, Mean: 2.781

## 58 (KYNKRKR; Novel peptide) [compound 58]
  mRNA level of Dspp gene, Mean: 2.677

## 128 (KYKKKRR; Novel peptide) [compound 128]
  mRNA level of Dspp gene, Mean: 1.765

## 119 (KYRNKKR; Novel peptide) [compound 119]
  mRNA level of Dspp gene, Mean: 2.121

## 76 (KYRNRRR; Novel peptide) [compound 76]
  mRNA level of Dspp gene, Mean: 2.394

## 31 (KYQQKKR; Novel peptide) [compound 31]
  mRNA level of Dspp gene, Mean: 2.432

## 33 (KYRRRKK; Novel peptide) [compound 33]
  mRNA level of Dspp gene, Mean: 3.615
